Results on 2 substances are retold here after patent US20120321610A1, “METHOD TO INHIBIT NEUROPATHIC PAIN BY INTRATHECAL INJECTION OF PROTEIN PHOSPHATASES” (priority 2011, published 2012).

What all share (type): in vivo, rat
For one assay, the system named is calcineurin. As to the kind of experiment: Calcineurin activity in the PSD after intrathecal injection (commercial kit). The note with it: control, uninjured rats; 90 minutes after intrathecal injection; vs saline; FIG. 16. The method, then:
(§1) Animals were anesthetized with isoflurane and while still deeply anesthetized were euthanized with an intracardiac injection of super-saturated potassium chloride (>350 mg/ml). A laminectomy was used to rapidly (<2 min) expose the lumbar spinal cord at L5. About 1 cm of the cord was excised and placed into a Petri dish containing dry-ice-cold saline or homogenizing buffer. Subsequently, the cord was cut under a dissecting microscope into dorsal and ventral halves, and the dorsal half further divided into ipsilateral and contralateral quadrants. All tissues were immediately placed into dry-ice cooled collecting tubes, and stored at −80° C. until used.
(§2) Calcineurin activity was obtained with a commercial kit (Enzo Life Sciences, Plymouth Meeting, Pa.) and expressed as nmol of phosphate released/min/mg of protein. Immunoblots were performed as described previously (Miletic et al., 2002). Calcineurin isoform […] (Millipore, Billerica, Mass.) was used at a dilution of 1:1000. Developed membranes were stripped and re-probed with beta III tubulin (1:1000; Promega, Madison, Wis.) as the loading control. Protein levels were estimated with the BioSpectrum 500 Image Analysis System (UVP, Upland, Calif.). The calcineurin Aα content within a gel was expressed over the beta III tubulin content, and then the content in sham-operated or CCI animals was normalized to those in control animals. […]

The subject of assay [1] is control, uninjured animals. As to the kind of experiment: Mechanical withdrawal threshold in control, uninjured animals after intrathecal injection. As to conditions: uninjured rats. The text has this: (§3) An automated instrument was used for assessing touch sensitivity. An animal was placed inside a plastic box on a raised plasticized wire-mesh surface. The animal is free to move within the confines of the box. The animal acclimates to the apparatus, and a touch stimulator unit was then slid under the animal to position a stainless steel filament (0.5 mm diameter) under the plantar surface of a paw. A button press causes the filament to move perpendicularly to the tested paw. The filament exerts an increasing force, starting below the threshold of detection and increases until the animal withdraws the paw. The force applied to the filament that results in paw withdrawal was recorded.
(§4) For both behaviors, the ipsilateral, injured, paw was tested four times to obtain an average value. Each test is separated by 5 min. Persons performing behavioral tests are blinded to treatment whenever possible.
The animals were anesthetized with isoflurane and securely held in the sternal position. A 25 μl Hamilton-brand microsyringe was fitted with a 25-gauge, 1-inch hypodermic needle and the needle inserted between the dorsal aspects of L5 and L6 perpendicular to the vertebral column. This site corresponds to the region where the spinal cord ends and the cauda equina begins and was chosen to reduce the possibility of spinal damage. […]

The subject of assay [2] is control, uninjured animals. As to the kind of experiment: Thermal withdrawal latency in control, uninjured animals after intrathecal injection. The note with it: uninjured rats. The method, then:
(§5) Thermal sensitivity is assessed using the hindpaw withdrawal test to a thermal noxious stimulus. An animal was placed inside a plastic box on a raised glass surface. The animal is free to move within the confines of the box. A movable, focused beam of radiant heat was placed under the glass on which the animal is resting a paw. The glass is progressively heated until a noxious threshold was reached to elicit paw withdrawal. As soon as the animal moved its paw, a photocell in the metal enclosure containing the heat source turned off the light. The latency (in sec) for the animal to withdraw its paw was recorded by a digital automatic display.
as §4
The animals were anesthetized with isoflurane and securely held in the sternal position. A 25 μl Hamilton-brand microsyringe was fitted with a 25-gauge, 1-inch hypodermic needle and the needle inserted between the dorsal aspects of L5 and L6 perpendicular to the vertebral column. This site corresponds to the region where the spinal cord ends and the cauda equina begins and was chosen to reduce the possibility of spinal damage. The needle was advanced until a slight but noticeable movement of the tail or the leg was observed. […]

For another assay, the system named is calcineurin Aα isoform. As to the kind of experiment: Immunoblot of calcineurin Aα content in the post-synaptic density of spinal dorsal horn neurons after intrathecal injection. As to conditions: CCI rats; 90 min after single intrathecal injection of 100 units; vs saline; FIG. 7. The method, then:
as §1, §2
On the technique in general: Immunoblotting shows a protein as a band on a membrane.

In assay [3] the test system is CCI animals (chronic constriction injury of the sciatic nerve). In words: Thermal withdrawal latency in CCI animals after intrathecal injection. As to conditions: for analgesia, thermal latency threshold: group data, 100 units intrathecal, FIG. 13. The method, then: as §5, §4
(§6) Animals were anesthetized with isoflurane and prepared for surgery by clipping the hair over the mid-thigh area of the left hind leg, scrubbing the clipped area with povidone iodine and alcohol (repeated three times), and lubricating the eyes with sterile ophthalmic ointment. The sciatic nerve was exposed at mid-thigh level by blunt dissection through the biceps femoris muscles. The nerve was freed of adherent tissue, and four ligatures (4.0 chromic gut) were spaced about 1 mm apart. Care was taken to tie the ligatures so that the nerve trunk is just barely constricted when viewed with a dissecting microscope at 40×. […] The incision was closed in layers using chromic gut sutures for muscle and silk sutures for skin.
(§7) A stock solution of calcineurin enzyme at a concentration of 100 units/microliter is commercially available (Enzo Life Sciences, Plymouth Meeting, Pa., Cat. No. BML-SE163-5000). The stock solution was diluted 1:10 with saline (1 part of calcineurin stock solution+9 parts of saline) to make a diluted calcineurin solution of 10 units/microliter. Ten microliters of the diluted calcineurin solution was then injected intrathecally. In other words the dose is 100 units of calcineurin per animal. Animal weights were approximately 200 to 250 g. This equates to a dosage of roughly 3 μg/kg body weight (in the rat).
(§8) The animals were anesthetized with isoflurane and securely held in the sternal position. A 25 μl Hamilton-brand microsyringe was fitted with a 25-gauge, 1-inch hypodermic needle and the needle inserted between the dorsal aspects of L5 and L6 perpendicular to the vertebral column. This site corresponds to the region where the spinal cord ends and the cauda equina begins and was chosen to reduce the possibility of spinal damage. The needle was advanced until a slight but noticeable movement of the tail or the leg was observed. […] Drugs were injected in a volume of 10 μl and the syringe was held in place for a few seconds before being progressively and slowly withdrawn to avoid drug outflow. The rat then recovers from the anesthesia.

For assay [4] the test system is unchanged. As to the kind of experiment: Mechanical withdrawal threshold in CCI animals after intrathecal injection. The note with it: for analgesia, mechanical stimulus threshold: group data, FIG. 12.
From the text: as §3, §4, §6, §7, §8

As to FK-506 [reference compound], in the assay with calcineurin, the “calcineurin activity in PSD” value was “significant decrease”. The mechanical withdrawal thresholds entry in assay [1] (90 minutes after intrathecal injection, vs saline, FIG. 14) was “significant decrease”. Also, in assay [2] (90 minutes after intrathecal injection, vs saline, FIG. 15), the thermal latencies entry is reported as “significant decrease”.

Turning to calcineurin, the “behavior, mechanical stimulation” value in assay [1] (single intrathecal injection, FIG. 10) is “not modified”. For the same substance, the “calcineurin Act in ipsilateral PSD” value in the assay on calcineurin Aα isoform is “significantly more”. Moreover, the thermal hypersensitivity result in assay [3] (CCI rats 7 days post-ligation, 100 units in 10 μl intrathecal, retested 90 min after injection, FIG. 6) was “significantly attenuated”; in assay [3] (CCI rats, single intrathecal injection 100 units, 2 days after injection, continuous, FIG. 9) it was “significantly attenuated”; in assay [3] (CCI rats, single intrathecal injection 100 units, 4 days after injection, continuous, FIG. 9) it was “continued to exhibit analgesia”; in assay [3] (CCI rats, single intrathecal injection 100 units, 6 days after injection, continuous, FIG. 9), “exhibited once again mechanical and thermal hypersensitivity”. The “analgesia, thermal latency threshold” value is “provided analgesia” in assay [3] (CCI rats, 2-day post-injection group); “provided analgesia” in assay [3] (CCI rats, 4-day post-injection group); “disappeared” in assay [3] (CCI rats, 6-day post-injection group). The mechanical hypersensitivity result in assay [4] (CCI rats 7 days post-ligation, 100 units in 10 μl intrathecal, retested 90 min after injection, FIG. 5) is “significantly attenuated”; in assay [4] (CCI rats, single intrathecal injection 100 units, 2 days after injection, same animals retested (continuous), FIG. 8) it was “significantly attenuated”; in assay [4] (CCI rats, single intrathecal injection 100 units, 4 days after injection, continuous, FIG. 8) it was “continued to exhibit analgesia”; in assay [4] (CCI rats, single intrathecal injection 100 units, 6 days after injection, continuous, FIG. 8) it was “exhibited once again mechanical and thermal hypersensitivity”. The “duration of pain relief from a single intrathecal injection” value in assay [4] (CCI rats, 100 units intrathecal, mechanical and thermal tests) is given as at least 4 days. For the same substance, the “analgesia, mechanical stimulus threshold” value is “provided analgesia” in assay [4] (CCI rats, 2-day post-injection group, 100 units intrathecal); “provided analgesia” in assay [4] (CCI rats, 4-day post-injection group, 100 units intrathecal); “disappeared” in assay [4] (CCI rats, 6-day post-injection group, 100 units intrathecal). Moreover, the “behavior, thermal stimulation” value in assay [2] (single intrathecal injection, FIG. 11) is “not modified”.
